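Growth conditions: 96-well plates. Treatment: test compound, 48 hours, 5 concentrations. Analysis: linear interpolation between bracketing concentrations; unreached endpoints set to highest concentration. The concentration for 50% growth inhibition is given as GI50.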 Activity calls are given as the source filed them. No stated cut-off is given here; in the data, active = GI50 up to about 1.1 µM and inactive = higher.
Assays:
Assay in all cases: DTP human tumour cell line panel, 48 h
[1] = test system: OVCAR-5
[2] = test system: SK-MEL-5
[3] = test system: NCI-H522
[4] = test system: M14
[5] = test system: DU-145
[6] = test system: CCRF-CEM
[7] = test system: ACHN
[8] = test system: HL-60
[9] = test system: RXF 393
[10] = test system: MDA-MB-231
[11] = test system: A498
[12] = test system: 786-0
[13] = test system: HCT-116
[14] = test system: HOP-92
[15] = test system: SK-OV-3
[16] = test system: SK-MEL-2
[17] = test system: IGROV-1
[18] = test system: SW-620
[19] = test system: MDA-MB-435
[20] = test system: BT-549
[21] = test system: MOLT-4
[22] = test system: NCI/ADR-RES
[23] = test system: K562
[24] = test system: UO-31
[25] = test system: SF-295
[26] = test system: SR
[27] = test system: A549
[28] = test system: SN12C
[29] = test system: HT-29
[30] = test system: MDA-N
[31] = test system: UACC-257
[32] = test system: NCI-H226
[33] = test system: U-251
[34] = test system: LOX IMVI
[35] = test system: NCI-H460
[36] = test system: SNB-19
[37] = test system: OVCAR-3
[38] = test system: SF-539
[39] = test system: Hs-578T
[40] = test system: COLO 205
[41] = test system: UACC-62
[42] = test system: TK-10
[43] = test system: OVCAR-8
[44] = test system: CAKI-1
[45] = test system: HCT-15
[46] = test system: Malme-3M
[47] = test system: EKVX
[48] = test system: NCI-H23
[49] = test system: SF-268
[50] = test system: RPMI-8226
[51] = test system: PC-3
[52] = test system: SK-MEL-28
[53] = test system: MCF7
[54] = test system: OVCAR-4
[55] = test system: SNB-75
[56] = test system: HCC 2998
[57] = test system: KM12
[58] = test system: HOP-62

In the case of `COc1ccc(N2C(=O)C3c4[nH]c5ccc(C)cc5c4C4CCC(C)CC4C3C2=O)cc1` (stereo not given), the GI50 [1] is reported as > 100 µM (inactive), the GI50 [2] is reported as > 100 µM (inactive) and the GI50 [3] is reported as 92 µM (inactive). For the same molecule, the GI50 [4] was > 100 µM (inactive), the GI50 [5] was > 100 µM (inactive) and the GI50 [6] was 18.5 µM (inactive). For the same molecule, the GI50 [7] was 99.3 µM (inactive), the GI50 [8] was > 10 µM (inactive) and the GI50 [9] was 20.7 µM (inactive). The GI50 [10] was 15.1 µM (inactive), the GI50 [11] was 21.6 µM (inactive) and the GI50 [12] was 25.7 µM (inactive). The GI50 [13] was 36.5 µM (inactive), the GI50 [14] was 76.2 µM (inactive) and the GI50 [15] was 25.3 µM (inactive). For the same molecule, the GI50 [16] was 33.3 µM (inactive), the GI50 [17] was > 100 µM (inactive) and the GI50 [18] was > 100 µM (inactive). For the same molecule, the GI50 [19] was > 100 µM (inactive), the GI50 [20] was > 100 µM (inactive) and the GI50 [21] was 67.5 µM (inactive). The GI50 [22] was 44.7 µM (inactive), the GI50 [23] was 66.7 µM (inactive) and the GI50 [24] was > 100 µM (inactive). For the same molecule, the GI50 [25] was 27.1 µM (inactive), the GI50 [26] was 23.2 µM (inactive) and the GI50 [27] was > 100 µM (inactive). For the same molecule, the GI50 [28] was > 100 µM (inactive), the GI50 [29] was > 100 µM (inactive) and the GI50 [30] was > 100 µM (inactive). The GI50 [31] was > 100 µM (inactive), the GI50 [32] was > 100 µM (inactive) and the GI50 [33] was 53.7 µM (inactive). The GI50 [34] was > 100 µM (inactive), the GI50 [35] was > 100 µM (inactive) and the GI50 [36] was 61.2 µM (inactive). The GI50 [37] was 58.1 µM (inactive), the GI50 [38] was 17.7 µM (inactive) and the GI50 [39] was 4.65 µM (inactive). The GI50 [40] was > 100 µM (inactive), the GI50 [41] was 52.7 µM (inactive) and the GI50 [42] was 34.4 µM (inactive). The GI50 [43] was > 100 µM (inactive), the GI50 [44] was > 100 µM (inactive) and the GI50 [45] was > 100 µM. The GI50 [46] was > 100 µM (inactive), the GI50 [47] was > 100 µM (inactive) and the GI50 [48] was 59 µM (inactive). For the same molecule, the GI50 [49] was 37.8 µM (inactive), the GI50 [50] was > 100 µM (inactive) and the GI50 [51] was > 100 µM (inactive).
`COc1cc(S(=O)(=O)Nc2ccc(-c3csc(N4C(=O)CSC4c4cccs4)n3)cc2)ccc1Cl` (stereo not given) was tested, and the GI50 [52] was 19.9 µM (inactive), the GI50 [1] was > 100 µM (inactive) and the GI50 [2] was 64 µM (inactive). For the same molecule, the GI50 [3] was 15.9 µM (inactive), the GI50 [4] was 46.9 µM (inactive) and the GI50 [5] was 22.1 µM (inactive). The GI50 [6] was 4.98 µM (inactive), the GI50 [7] was > 100 µM (inactive) and the GI50 [8] was 14.5 µM (inactive). For the same molecule, the GI50 [9] was 11.2 µM (inactive), the GI50 [53] was 16.4 µM (inactive) and the GI50 [11] was 43.6 µM (inactive). The GI50 [12] was 28.4 µM (inactive), the GI50 [13] was 31.3 µM (inactive) and the GI50 [14] was 23.7 µM (inactive). The GI50 [15] was 56.4 µM (inactive), the GI50 [16] was 20.5 µM (inactive) and the GI50 [17] was 27.1 µM (inactive). For the same molecule, the GI50 [54] was 18.4 µM (inactive), the GI50 [18] was 24.7 µM (inactive) and the GI50 [19] was 29.5 µM (inactive). The GI50 [20] was 23.6 µM (inactive), the GI50 [21] was 8.67 µM (inactive) and the GI50 [22] was > 100 µM (inactive). For the same molecule, the GI50 [23] was 22.6 µM (inactive), the GI50 [24] was 57.3 µM (inactive) and the GI50 [25] was > 100 µM (inactive). The GI50 [26] was 29.7 µM (inactive), the GI50 [55] was 20.2 µM (inactive) and the GI50 [27] was 86.9 µM (inactive). For the same molecule, the GI50 [28] was 25.8 µM (inactive), the GI50 [29] was 39.8 µM (inactive) and the GI50 [30] was 29.4 µM (inactive). For the same molecule, the GI50 [31] was 20.3 µM (inactive), the GI50 [32] was 27.9 µM (inactive) and the GI50 [56] was 15.6 µM (inactive). For the same molecule, the GI50 [34] was 18.7 µM (inactive), the GI50 [35] was 29.3 µM (inactive) and the GI50 [36] was 33.3 µM (inactive). For the same molecule, the GI50 [57] was 20.4 µM (inactive), the GI50 [37] was 51.5 µM (inactive) and the GI50 [38] was 25.7 µM (inactive). For the same molecule, the GI50 [39] was 30.3 µM (inactive), the GI50 [40] was 31.8 µM (inactive) and the GI50 [43] was 41.5 µM (inactive). For the same molecule, the GI50 [44] was 79.8 µM (inactive), the GI50 [45] was 32.6 µM and the GI50 [46] was 27.9 µM (inactive). For the same molecule, the GI50 [47] was 50.8 µM (inactive), the GI50 [48] was 31.3 µM (inactive) and the GI50 [49] was 19.8 µM (inactive). For the same molecule, the GI50 [50] was 8.67 µM (inactive), the GI50 [58] was 42.7 µM (inactive) and the GI50 [51] was 24.9 µM (inactive).
